Results published in ChEMBL document CHEMBL4304785, “Recent advances of analogues of curcumin for treatment of cancer” (Eur J Med Chem, 2019).
Values belong to the compound of their own block, whether it stands above or below them.

Key:
[1] = tested on: MCF7; test: Anti-invasive activity against human MCF7 cells at 100 umol/L after 12 hrs by giemsa staining based light microscopic analysis relative to control; type: functional
[2] = tested on: 3LL cell line; test: Induction of apoptosis in mouse 3LL cells relative to control; type: functional, cell-based
[3] = tested on: DU-145; test: Cell cycle arrest in human DU145 cells by propidium iodide staining-based flow cytometric method; type: functional
[4] = tested on: KB; test: Cell cycle arrest in human KB cells by propidium iodide staining-based flow cytometric method; type: functional
[5] = tested on: HL-60; test: Induction of apoptosis in human HL60 cells relative to control; type: functional, cell-based
[6] = tested on: A549; test: Cell cycle arrest in human A549 cells by propidium iodide staining-based flow cytometric method; type: functional
[7] = tested on: HT-1080; test: Antioxidant activity in human HT1080 cells at 100 umol/L by measuring TBARS level by spectrophotometric method relative to control; type: functional
[8] = tested on: MCF7; test: Cell cycle arrest in human MCF7 cells by propidium iodide staining-based flow cytometric method; type: functional
[9] = tested on: U-937; test: Induction of apoptosis in human U937 cells relative to control; type: functional, cell-based
[10] = tested on: HepG2; test: Induction of apoptosis in human HepG2 cells relative to control; type: functional, cell-based
[11] = Induction of apoptosis in human SNUC5 cells relative to control; type: functional, cell-based
[12] = tested on: ASPC1; test: Antitumor activity against human Aspc-1 cells xenografted in athymic nude mouse assessed as reduction in tumor volume at 5 mg/kg after 35 days relative to control; type: functional; settings: ASPC1, 840 h
[13] = tested on: SCC-25; test: Cytotoxicity against human SCC25 cells after 72 hrs by MTT assay; type: functional, cell-based; settings: SCC-25, 72 h
[14] = tested on: A-431; test: Cytotoxicity against human A431 cells after 72 hrs by MTT assay; type: functional, cell-based; settings: A-431, 72 h
[15] = Cytotoxicity against […] cells after 72 hrs by MTT assay; type: functional, cell-based; settings: B16, 72 h
[16] = tested on: A-375; test: Cytotoxicity against human A375 cells after 72 hrs by MTT assay; type: functional, cell-based; settings: A-375, 72 h
[17] = Cytotoxicity against human BCC cells after 72 hrs by MTT assay; type: functional, cell-based
[18] = tested on: SK-OV-3; test: Induction of apoptosis in human SKOV3 cells at 20 umol/L after 48 hrs by annexin-V-FITC/propidium iodide staining-based flow cytometric method relative to control; type: functional
[19] = tested on: MDA-MB-231; test: Increase in MMP3 level in human MDA-MB-231 cells after 24 hrs by ELISA; type: functional, cell-based; settings: MDA-MB-231, 24 h
[20] = tested on: SK-OV-3; test: Induction of apoptosis in human SKOV3 cells at 40 umol/L after 48 hrs by annexin-V-FITC/propidium iodide staining-based flow cytometric method relative to control; type: functional
[21] = tested on: SK-OV-3; test: Induction of apoptosis in human SKOV3 cells at 80 umol/L after 48 hrs by annexin-V-FITC/propidium iodide staining-based flow cytometric method relative to control; type: functional
[22] = tested on: HT-1080; test: Decrease in UPA expression in human HT1080 cells; type: functional, cell-based
[23] = tested on: HT-1080; test: Induction of DNA damage in human HT1080 cells assessed as formation of DNA breaks at 50 ug/ml by comet assay relative to control; type: functional
[24] = tested on: Caco-2; test: Cytotoxicity against human Caco2 cells by MTT assay; type: functional, cell-based
[25] = tested on: DU-145; test: Potentiation of PTX-induced anticancer activity in human DU145 cells assessed as reduction in PTX IC50 (reference value: 13.5 nmol/L); type: functional, cell-based
[26] = tested on: PC-3; test: Cytotoxicity against human PC3 cells; type: functional, cell-based
[27] = tested on: DU-145; test: Cytotoxicity against human DU145 cells; type: functional, cell-based
[28] = Inhibition of cell invasion in human […] cells at 4 nmol/L after 24 hrs by crystal violet staining based transwell assay relative to control; type: functional
[29] = tested on: HT-144; test: Cytotoxicity against human HT144 cells after 48 hrs by MTT assay; type: functional, cell-based; settings: HT-144, 48 h
[30] = tested on: NCI-H460; test: Cytotoxicity against human H460 cells after 48 hrs by MTT assay; type: functional, cell-based; settings: NCI-H460, 48 h
[31] = tested on: MIA PaCa-2; test: Cytotoxicity against human MIAPaCa2 cells after 48 hrs by MTT assay; type: functional, cell-based; settings: MIA PaCa-2, 48 h
[32] = tested on: HT-144; test: Cytotoxicity against human HT144 cells after 24 hrs by MTT assay; type: functional, cell-based; settings: HT-144, 24 h

Compound: O=C(CC(=O)c1ccccc1)c1ccccc1 [DIBENZOYLMETHANE]
Activity [1]: 84%

IC50 [2]: 89.6 µM
IC50 [3]: 33.2 µM
IC50 [4]: 38.6 µM
IC50 [5]: 23.7 µM
IC50 [6]: 33.5 µM
IC50 [8]: 40.7 µM
IC50 [9]: 39.4 µM
IC50 [10]: 119 µM
IC50 [11]: 129 µM
Compound: C/C=C/c1ccc(O)c(OC)c1
Activity [7]: 70%

Compound: COc1cc(CNC(=O)CCCC/C=C/C(C)C)ccc1O [CAPSAICIN]
inhibition in vivo at 5 mg/kg [12]: 73%

Compound: COc1cc(CCC(=O)CCCCc2ccccc2)ccc1O
IC50 [13]: 18.7 µM
IC50 [14]: 13.3 µM
IC50 [15]: 40 µM
IC50 [16]: 23.8 µM
IC50 [17]: 11.3 µM

IC50 [19]: 9 µM
IC50 [22]: 7.5 µM
Compound: COc1cc(/C=C/C(=O)CC(=O)/C=C/c2ccc(O)cc2)ccc1O
Activity [18]: 35.1%
Activity [20]: 51.5%
Activity [21]: 70.7%

Compound: O=C(O)/C=C/c1ccc(O)c(O)c1 [CAFFEIC ACID]
Activity [23]: 85%

Compound: CCOC(=O)CCC(=O)Oc1ccc(/C=C/C(=O)/C=C(O)/C=C/c2ccc(OC(=O)CCC(=O)OCC)c(OC)c2)cc1OC
IC50 [24]: 1.84 µM

IC50 [25]: 0.0055 µM
Compound: C/C1=C\CC(C)(C)/C=C/C(=O)/C(C)=C/CC1 [ZERUMBONE]
IC50 [26]: 9.1 µM
IC50 [27]: 6.9 µM

Compound: O=C(O)/C=C/c1ccccc1 [CINNAMIC ACID]
inhibition at 0.004 µM [28]: 60%
IC50 [29]: 1.07 µM
IC50 [30]: 2.1 µM
IC50 [31]: 1.33 µM
IC50 [32]: 2.4 µM
